Source: ChEMBL document CHEMBL1134896, “Antileishmanial dinitroaniline sulfonamides with activity against parasite tubulin” (Bioorg Med Chem Lett, 2002)

Assays:
[1] = tested on: Leishmania donovani; assay: Inhibitory activity against Leishmania donovani promastigotes; format: functional, organism-based
[2] = tested on: Leishmania sp.; assay: Percentage inhibition against Leishmania tubulin in vitro was determined at 20 uM; format: functional
[3] = tested on: Leishmania donovani; assay: Inhibitory activity against Leishmania donovani amastigotes; format: functional, organism-based

Compound | IC50 [1] [µM] | IC50 [3] [µM] | inhibition at 20 µM [2] [%]
CCCN(CCC)c1c([N+](=O)[O-])cc(C#N)cc1[N+](=O)[O-] | > 100 |  | 25
CCCN(CCC)c1c([N+](=O)[O-])cc(S(=O)(=O)Nc2ccccc2)cc1[N+](=O)[O-] | 14.7 | 5.41 | 108
CCCN(CCC)c1ccc(S(N)(=O)=O)cc1[N+](=O)[O-] | 89.8 |  | 19
CCCNS(=O)(=O)c1cc([N+](=O)[O-])c(N(CCC)CCC)c([N+](=O)[O-])c1 | 56 | 56.9 | 97
NS(=O)(=O)c1cc([N+](=O)[O-])c(N2CCOCC2)c([N+](=O)[O-])c1 | > 100 |  | 21
CCCN(CCC)c1c([N+](=O)[O-])cc(C(=N)NO)cc1[N+](=O)[O-] | > 100 |  | 35
N=C(N)c1ccc(OCCCCCOc2ccc(C(=N)N)cc2)cc1 [PENTAMIDINE] | 1.61 | 2 | 
CCCN(CCC)c1c([N+](=O)[O-])cc(S(N)(=O)=O)cc1[N+](=O)[O-] [ORYZALIN] | 44.1 | 72.5 | 54
CCCN(CCC)c1c([N+](=O)[O-])cc(C(N)=O)cc1[N+](=O)[O-] | 76.4 |  | 34
NS(=O)(=O)c1cc([N+](=O)[O-])c(N2CCCC2)c([N+](=O)[O-])c1 | 97.1 |  | 57

Now from value to compound, other results behind:

IC50 [1] [µM] | IC50 [3] [µM] | Compound | inhibition at 20 µM [2] [%]
12.2 | 11.7 | CCCCCCN(CCCCCC)c1c([N+](=O)[O-])cc(S(N)(=O)=O)cc1[N+](=O)[O-] | 48
67 |  | CCCNc1c([N+](=O)[O-])cc(S(N)(=O)=O)cc1[N+](=O)[O-] | 43
17.8 | 20.1 | CCCCN(CCCC)c1c([N+](=O)[O-])cc(S(N)(=O)=O)cc1[N+](=O)[O-] | 89
8.02 | 9 | CCCCCN(CCCCC)c1c([N+](=O)[O-])cc(S(N)(=O)=O)cc1[N+](=O)[O-] | 95
69.3 |  | CCN(CC)c1c([N+](=O)[O-])cc(S(N)(=O)=O)cc1[N+](=O)[O-] | 58
